# In publication PMC7434893 (British Journal of Cancer, 2020):
# “And” between values parts separate entries of the source, which are not always exact repeats. Identical values can stand only once. Like-named read-outs stand apart in the source and are kept apart here.
# Assays:
# MDA-MB-468 = test: 8-day growth inhibition; type: cell-based; conditions: Breast, MDA-MB-468, 8-day assay
# NCI-H446 = test: 8-day growth inhibition; type: cell-based; conditions: SCLC, NCI-H446, 8-day assay
# U266 = test: 8-day growth inhibition; type: cell-based; conditions: Myeloma, U266, 8-day assay
smiles,measurement,setting,value
O=c1[nH]nc2c3c(cccc13)N=C(CN1Cc3ccccc3C1)N2 [E7449],IC50,MDA-MB-468,2500 nM
same,"Abdominal pain, treatment-related AE",50 mg (n = 3),0%
same,"Anaemia, treatment-related AE",50 mg (n = 3),33.3%
same,"Chromaturia, treatment-related AE",50 mg (n = 3),0%
same,"Constipation, treatment-related AE",50 mg (n = 3),33.3%
same,"Decreased appetite, treatment-related AE",50 mg (n = 3),33.3%
same,"Depression, treatment-related AE",50 mg (n = 3),0%
same,"Diarrhoea, treatment-related AE",50 mg (n = 3),33.3%
same,"Dizziness, treatment-related AE",50 mg (n = 3),0%
same,"Dry skin, treatment-related AE",50 mg (n = 3),0%
same,"Dysgeusia, treatment-related AE",50 mg (n = 3),0%
same,"Erythematous rash, treatment-related AE",50 mg (n = 3),0%
same,"Fatigue, treatment-related AE",50 mg (n = 3),33.3%
same,"Increased blood alkaline phosphatase, treatment-related AE",50 mg (n = 3),0%
same,"Maculopapular rash, treatment-related AE",50 mg (n = 3),0%
same,"Nausea, treatment-related AE",50 mg (n = 3),33.3%
same,"Onycholysis, treatment-related AE",50 mg (n = 3),0%
same,"Periorbital oedema, treatment-related AE",50 mg (n = 3),0%
same,"Photosensitivity reaction, treatment-related AE",50 mg (n = 3),33.3%
same,"Pruritus, treatment-related AE",50 mg (n = 3),0%
same,"Skin hyperpigmentation, treatment-related AE",50 mg (n = 3),0%
same,"Vomiting, treatment-related AE",50 mg (n = 3),33.3%
same,"Patients with dose-limiting toxicity, n (%)","50 mg cohort, 3 evaluable",0 n (%)
same,"Abdominal pain, treatment-related AE",100 mg (n = 3),33.3%
same,"Anaemia, treatment-related AE",100 mg (n = 3),0%
same,"Chromaturia, treatment-related AE",100 mg (n = 3),0%
same,"Constipation, treatment-related AE",100 mg (n = 3),33.3%
same,"Decreased appetite, treatment-related AE",100 mg (n = 3),0%
same,"Depression, treatment-related AE",100 mg (n = 3),33.3%
same,"Diarrhoea, treatment-related AE",100 mg (n = 3),33.3%
same,"Dizziness, treatment-related AE",100 mg (n = 3),0%
same,"Dry skin, treatment-related AE",100 mg (n = 3),33.3%
same,"Dysgeusia, treatment-related AE",100 mg (n = 3),0%
same,"Erythematous rash, treatment-related AE",100 mg (n = 3),0%
same,"Fatigue, treatment-related AE",100 mg (n = 3),66.7%
same,"Increased blood alkaline phosphatase, treatment-related AE",100 mg (n = 3),0%
same,"Maculopapular rash, treatment-related AE",100 mg (n = 3),33.3%
same,"Nausea, treatment-related AE",100 mg (n = 3),33.3%
same,"Onycholysis, treatment-related AE",100 mg (n = 3),0%
same,"Periorbital oedema, treatment-related AE",100 mg (n = 3),0%
same,"Photosensitivity reaction, treatment-related AE",100 mg (n = 3),33.3%
same,"Pruritus, treatment-related AE",100 mg (n = 3),33.3%
same,"Skin hyperpigmentation, treatment-related AE",100 mg (n = 3),33.3%
same,"Vomiting, treatment-related AE",100 mg (n = 3),0%
same,"Patients with dose-limiting toxicity, n (%)","100 mg cohort, 3 evaluable",0 n (%)
same,"Abdominal pain, treatment-related AE",200 mg (n = 4),0%
same,"Anaemia, treatment-related AE",200 mg (n = 4),0%
same,"Chromaturia, treatment-related AE",200 mg (n = 4),0%
same,"Constipation, treatment-related AE",200 mg (n = 4),0%
same,"Decreased appetite, treatment-related AE",200 mg (n = 4),0%
same,"Depression, treatment-related AE",200 mg (n = 4),25.0%
same,"Diarrhoea, treatment-related AE",200 mg (n = 4),0%
same,"Dizziness, treatment-related AE",200 mg (n = 4),0%
same,"Dry skin, treatment-related AE",200 mg (n = 4),0%
same,"Dysgeusia, treatment-related AE",200 mg (n = 4),0%
same,"Erythematous rash, treatment-related AE",200 mg (n = 4),0%
same,"Fatigue, treatment-related AE",200 mg (n = 4),0%
same,"Increased blood alkaline phosphatase, treatment-related AE",200 mg (n = 4),0%
same,"Maculopapular rash, treatment-related AE",200 mg (n = 4),25.0%
same,"Nausea, treatment-related AE",200 mg (n = 4),50.0%
same,"Onycholysis, treatment-related AE",200 mg (n = 4),0%
same,"Periorbital oedema, treatment-related AE",200 mg (n = 4),0%
same,"Photosensitivity reaction, treatment-related AE",200 mg (n = 4),0%
same,"Pruritus, treatment-related AE",200 mg (n = 4),0%
same,"Skin hyperpigmentation, treatment-related AE",200 mg (n = 4),0%
same,"Vomiting, treatment-related AE",200 mg (n = 4),25.0%
same,"Patients with dose-limiting toxicity, n (%)","200 mg cohort, 4 evaluable",0 n (%)
same,"Abdominal pain, treatment-related AE",400 mg (n = 4),25.0%
same,"Anaemia, treatment-related AE",400 mg (n = 4),0%
same,"Chromaturia, treatment-related AE",400 mg (n = 4),50.0%
same,"Constipation, treatment-related AE",400 mg (n = 4),0%
same,"Decreased appetite, treatment-related AE",400 mg (n = 4),25.0%
same,"Depression, treatment-related AE",400 mg (n = 4),50.0%
same,"Diarrhoea, treatment-related AE",400 mg (n = 4),50.0%
same,"Dizziness, treatment-related AE",400 mg (n = 4),0%
same,"Dry skin, treatment-related AE",400 mg (n = 4),0%
same,"Dysgeusia, treatment-related AE",400 mg (n = 4),0%
same,"Erythematous rash, treatment-related AE",400 mg (n = 4),0%
same,"Fatigue, treatment-related AE",400 mg (n = 4),75.0%
same,"Increased blood alkaline phosphatase, treatment-related AE",400 mg (n = 4),25.0%
same,"Maculopapular rash, treatment-related AE",400 mg (n = 4),25.0%
same,"Nausea, treatment-related AE",400 mg (n = 4),25.0%
same,"Onycholysis, treatment-related AE",400 mg (n = 4),25.0%
same,"Periorbital oedema, treatment-related AE",400 mg (n = 4),25.0%
same,"Photosensitivity reaction, treatment-related AE",400 mg (n = 4),25.0%
same,"Pruritus, treatment-related AE",400 mg (n = 4),0%
same,"Skin hyperpigmentation, treatment-related AE",400 mg (n = 4),0%
same,"Vomiting, treatment-related AE",400 mg (n = 4),0%
same,"Patients with dose-limiting toxicity, n (%)","400 mg cohort, 3 evaluable",0 n (%)
same,"Abdominal pain, treatment-related AE",600 mg (n = 21),0%
same,"Anaemia, treatment-related AE",600 mg (n = 21),9.5%
same,"Chromaturia, treatment-related AE",600 mg (n = 21),66.7%
same,"Constipation, treatment-related AE",600 mg (n = 21),9.5%
same,"Decreased appetite, treatment-related AE",600 mg (n = 21),23.8%
same,"Depression, treatment-related AE",600 mg (n = 21),4.8%
same,"Diarrhoea, treatment-related AE",600 mg (n = 21),23.8%
same,"Dizziness, treatment-related AE",600 mg (n = 21),4.8%
same,"Dry skin, treatment-related AE",600 mg (n = 21),4.8%
same,"Dysgeusia, treatment-related AE",600 mg (n = 21),14.3%
same,"Erythematous rash, treatment-related AE",600 mg (n = 21),9.5%
same,"Fatigue, treatment-related AE",600 mg (n = 21),66.7%
same,"Increased blood alkaline phosphatase, treatment-related AE",600 mg (n = 21),14.3%
same,"Maculopapular rash, treatment-related AE",600 mg (n = 21),33.3%
same,"Nausea, treatment-related AE",600 mg (n = 21),33.3%
same,"Onycholysis, treatment-related AE",600 mg (n = 21),9.5%
same,"Periorbital oedema, treatment-related AE",600 mg (n = 21),19.0%
same,"Photosensitivity reaction, treatment-related AE",600 mg (n = 21),23.8%
same,"Pruritus, treatment-related AE",600 mg (n = 21),19.0%
same,"Skin hyperpigmentation, treatment-related AE",600 mg (n = 21),9.5%
same,"Vomiting, treatment-related AE",600 mg (n = 21),14.3%
same,Dose-limiting-toxicity description,600 mg cohort,Grade 3 anaphylactic reaction
same,"Patients with dose-limiting toxicity, n (%)","600 mg cohort, 6 evaluable",1 (16.7) n (%)
same,"Treatment-related grade 3 fatigue, patients","600 mg n = 2, 800 mg n = 2",4
same,"Abdominal pain, treatment-related AE",800 mg (n = 6),16.7%
same,"Anaemia, treatment-related AE",800 mg (n = 6),0%
same,"Chromaturia, treatment-related AE",800 mg (n = 6),66.7%
same,"Constipation, treatment-related AE",800 mg (n = 6),0%
same,"Decreased appetite, treatment-related AE",800 mg (n = 6),50.0%
same,"Depression, treatment-related AE",800 mg (n = 6),16.7%
same,"Diarrhoea, treatment-related AE",800 mg (n = 6),50.0%
same,"Dizziness, treatment-related AE",800 mg (n = 6),33.3%
same,"Dry skin, treatment-related AE",800 mg (n = 6),33.3%
same,"Dysgeusia, treatment-related AE",800 mg (n = 6),0%
same,"Erythematous rash, treatment-related AE",800 mg (n = 6),16.7%
same,"Fatigue, treatment-related AE",800 mg (n = 6),100.0%
same,"Increased blood alkaline phosphatase, treatment-related AE",800 mg (n = 6),0%
same,"Maculopapular rash, treatment-related AE",800 mg (n = 6),16.7%
same,"Nausea, treatment-related AE",800 mg (n = 6),33.3%
same,"Onycholysis, treatment-related AE",800 mg (n = 6),0%
same,"Periorbital oedema, treatment-related AE",800 mg (n = 6),0%
same,"Photosensitivity reaction, treatment-related AE",800 mg (n = 6),33.3%
same,"Pruritus, treatment-related AE",800 mg (n = 6),0%
same,"Skin hyperpigmentation, treatment-related AE",800 mg (n = 6),33.3%
same,"Vomiting, treatment-related AE",800 mg (n = 6),33.3%
same,Dose-limiting-toxicity description,800 mg cohort,Grade 3 fatigue (n = 1) Grade 2 fatigue (n = 3)
same,"Patients with dose-limiting toxicity, n (%)","800 mg cohort, 6 evaluable",4 (66.7) n (%)
same,"Treatment-emergent AEs associated with skin rash events, patients","17/41, doses ≥100 mg",41.5%
same,"Grade 4 AE (hypokalaemia, not treatment-related), patients",200-mg dose cohort,1
same,"Treatment-emergent chromaturia, patients",400-mg dose cohort,50.0%
same,"Treatment-emergent AEs associated with skin rash events, patients",600-mg dose cohort,47.6%
same,"Treatment-emergent chromaturia, patients",600-mg dose cohort,66.7%
same,"Treatment-emergent AEs associated with skin rash events, patients",800-mg dose cohort,66.7%
same,"Treatment-emergent chromaturia, patients",800-mg dose cohort,83.3%
same,"Abdominal pain, treatment-related AE",Total (N = 41),7.3%
same,"Anaemia, treatment-related AE",Total (N = 41),7.3%
same,"Chromaturia, treatment-related AE",Total (N = 41),49% and 48.8%
same,"Constipation, treatment-related AE",Total (N = 41),9.8%
same,"Decreased appetite, treatment-related AE",Total (N = 41),24% and 24.4%
same,"Depression, treatment-related AE",Total (N = 41),14.6%
same,"Diarrhoea, treatment-related AE",Total (N = 41),29% and 29.3%
same,"Dizziness, treatment-related AE",Total (N = 41),7.3%
same,"Dry skin, treatment-related AE",Total (N = 41),9.8%
same,"Dysgeusia, treatment-related AE",Total (N = 41),7.3%
same,"Erythematous rash, treatment-related AE",Total (N = 41),7.3%
same,"Fatigue, treatment-related AE",Total (N = 41),63% and 63.4%
same,"Increased blood alkaline phosphatase, treatment-related AE",Total (N = 41),9.8%
same,"Maculopapular rash, treatment-related AE",Total (N = 41),27% and 26.8%
same,"Nausea, treatment-related AE",Total (N = 41),34% and 34.1%
same,"Onycholysis, treatment-related AE",Total (N = 41),7.3%
same,"Periorbital oedema, treatment-related AE",Total (N = 41),12.2%
same,"Photosensitivity reaction, treatment-related AE",Total (N = 41),24% and 24.4%
same,"Pruritus, treatment-related AE",Total (N = 41),12.2%
same,"Skin hyperpigmentation, treatment-related AE",Total (N = 41),12.2%
same,"Vomiting, treatment-related AE",Total (N = 41),17.1%
same,Grade 5 AEs,all cohorts,No grade 5 AEs
same,"Grade 3 fatigue, patients","all cohorts, 7/41",17.1%
same,"Treatment discontinued due to AEs, patients","all cohorts, 7/41",17%
same,"Treatment-emergent chromaturia, patients","all cohorts, 21/41",51.2%
same,"Nonfatal SAEs, patients","all cohorts, 24/41",58.5%
same,"Grade 3 AEs, patients","all cohorts, 27 of 41 patients",65.9%
same,Patients with treatment-related AEs,"all cohorts, 39 patients",95.1%
same,"Grade 1 thrombocytopenia, patients","at the MTD, 1/21",5%
same,"Anaemia (≤grade 2), patients","at the MTD, 4/21",19%
same,Patients with DLTs,"of the 25 evaluable patients, all dose cohorts",5
same,Recommended phase 2 dose,"oral, once daily",600 mg
same,Maximum-tolerated dose (MTD),"oral, once daily, 28-day cycles",600 mg
same,IC50,NCI-H446,610 nM
same,IC50,U266,6700 nM
